Assay results reported in patent US20020098477A1, “METHODS FOR SCREENING NUCLEAR TRANSCRIPTION FACTORS FOR THE ABILITY TO MODULATE AN ESTROGEN RESPONSE” (priority 1997, published 2002).

How the values were obtained:
AP-1 response element = experiment: Coll73-LUC collagenase reporter gene assay in HeLa cells transfected with ER and GR; format: cell-based, human; settings: for AP-1 activation at dose used: TNF-α 10 ng/ml, data not shown
Description: Coll73-LUC and Coll60-CAT have been previously described (Webb et al. (1995) Mol. Endo., 9: 443-456; Lopez et al. (1993) Mol. Cell Biol., 13: 3042-3049). Coll73-LUC consists of −73 to +63 base pairs of the collagenase promoter upstream of the Luciferase reporter gene. Coll517-CAT and Coll517mAP-1-CAT each contain −517 to +63 of the collagenase promoter (Webb et al. (1995) Mol. Endo., 9: 443-456).
Coll517mAP-1-CAT contains three point mutations in the consensus AP-1 response element (TGAGTCA mutated to GTACTCA). ColALuc contains the collagenase AP-1 response element upstream of the minimal drosophila alcohol dehydrogenase promoter (Starr et al., (1996) Genes & Dev., 10: 1271-1283). The ER expression vectors have been previously described: PHE0 (Green et al. (1986) Nature, 320: 134-139), PHEG0 (Tora et al. (1989) EMBO J. 8: 1981-1986), HE11 (Kumar et al. (1986) EMBO J., 5: 2231-2236), and HE15 (Kumar et al. (1987) Cell, 51: 941-951). PHE0 contains a point mutation (Gly400Val). PHEG0 is the wild type ER. PHE0 has reduced affinity for estrogens which allows for studies in cell culture without inadvertent activation. The protein coding regions of the ER plasmids were cloned into the multiple cloning site of the pSG5 expression vector. pRSVhGR (McEwan et al. (1993) Mol. Cell. Biol., 13: 399-407) consists of a cDNA encoding the human GR coding region inserted into an expression vector driven by the Rous sarcoma virus promoter. The PR-A (PhPR-60) and PR-B (hPR65) plasmids were derived from T47D cDNA and genomic DNA (Law et al (1987) Proc. Natl. Acad. Sci., USA, 84: 2877-2881; Wei et al. (1988) Mol. Endo., 2: 62-72) and cloned into an expression vector derived from pLEN (Kushner et al. (1990) Mol. Endocrinol. 4: 1465-1473). The human c-Jun (Turner et al. (1989) Science, 243: 1689-1694)) and rat c-Fos (Cohen et al. (1989) Genes & Dev., 3: 173-184)), have been previously described. The beta-actin-hCG construct has been previously described (Lopez et al. (1993) Mol. Cell. Biol., 13: 3042-3049). The pJ3-LacZ plasmid is pBR322-based and contains an SV40 promoter which activates LacZ.
All cells were maintained in DME medium without phenol red. […]
(§1) Cells were transfected by electroporation as previously described (Webb et al. (1995) Mol. Endo., 9: 443-456). […] The efficiency of transfection was monitored by co-transfection with either a (hCG reporter driven by an actin promoter (Lopez et al. (1993) Mol. Cell. Biol., 13: 3042-3049) or by co-transfection with pJ3LACZ. CAT or luciferase activity was then corrected by dividing by hCG levels or β-galactosidase activity. Five micrograms of collagenase reporter plasmid, and 1 μg of GR expression vector were used in all experiments unless otherwise indicated. […]

PR-A [1] = settings: HeLa, 10^−7 M
Protocol: (FIG. 8A) HeLa cells were transfected with ColALuc (5 μg), ER (1 μg), PR-A or PR-B (1 μg), and c-Jun (3 μg). Data are from four separate transfections from three experiments for PR-A and from two transfections from two experiments for PR-B. Columns represent the average fold induction. […] Similar experiments have been repeated 3 times or less. (FIGS. 8A and 8B) Cells were treated with steroids immediately after transfection and harvested 40 hrs later. Error bars represent standard deviation.
All cells were maintained in DME medium without phenol red. The medium was supplemented by serum (Sigma) which was tested for low estrogenic activity prior to use. […] In these experiments cells were treated with media containing charcoal-treated serum the night prior to transfection.

PR-A [2] = experiment: ColALuc reporter assay in CV-1 cells transfected with ER, PR-A and c-Jun; format: cell-based, monkey
Protocol: (§2) (FIG. 8A) HeLa cells were transfected with ColALuc (5 μg), ER (1 μg), PR-A or PR-B (1 μg), and c-Jun (3 μg). Data are from four separate transfections from three experiments for PR-A and from two transfections from two experiments for PR-B. Columns represent the average fold induction. (FIG. 8B) CV-1 cells were transfected with ColALuc (5 μg), ER (HE0, 0.5 μg), PR-A (1 μg) and c-Jun (3 μg). Data is from one experiment. Columns represent the average of two treatment points. Similar experiments have been repeated 3 times or less. (FIGS. 8A and 8B) Cells were treated with steroids immediately after transfection and harvested 40 hrs later. Error bars represent standard deviation.
(§3) Coll517mAP-1-CAT contains three point mutations in the consensus AP-1 response element (TGAGTCA mutated to GTACTCA). […]
as §1

PR-B = experiment: ColALuc reporter assay in HeLa cells transfected with ER, PR-B and c-Jun; format: cell-based, human
Protocol: as §2, §3, §1

TNF-α
AP-1 activation at dose used (AP-1 response element; PMA 10^−7 M): maximal AP-1 activation

CC/C(=C(\c1ccccc1)c1ccc(OCCN(C)C)cc1)c1ccccc1 [tamoxifen]
tamoxifen effect on transcription at Coll73 (AP-1 response element; tamoxifen 5×10^−6 M, HE0, GR 1 μg): activation

CCCCCCCCCCCCCC(=O)O[C@@H]1[C@@H](C)[C@@]2(O)[C@@H](C=C(CO)C[C@]3(O)C(=O)C(C)=C[C@@H]23)[C@@H]2C(C)(C)[C@]12OC(C)=O [PMA]
AP-1 activation at dose used (AP-1 response element; PMA 10^−7 M): maximal AP-1 activation | transcriptional activity in the absence of steroids (AP-1 response element; PMA 10^−7 M, ER 5 μg, GR 1 μg): ten fold stimulation

CCC(=O)[C@@]1(C)CC[C@H]2[C@@H]3CCC4=CC(=O)CCC4=C3CC[C@@]21C [R5020]
activity of AP-1 site, single steroid (PR-A [1]): inhibited the basal activity | progestin inhibition of estradiol with increased amounts of c-Jun (PR-A [2]; CV-1, PR-A, increasing c-Jun): maintained | effect on the estradiol response (PR-A [2]; CV-1, transfected PR-A): inhibited the estradiol response | activity of AP-1 site, single steroid (PR-B; 10^−7 M): inhibited the basal activity | progestin inhibition on treatment with both steroids (PR-B; estradiol + progestin): loss of RU5020 inhibition
